# ± gives the standard deviation of the averaged measurements.
# Key:
# HS-PSS [1] = test: drug sensitivity score (DSS, CellTox-Green cytotoxicity, 72 h) (DSS (dimensionless)); higher = more cytotoxic; extreme values may be limits of the assay
# In short: (§1)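 For 72 h at 37 °C, MPNST cell lines and primary human Schwann cells were exposed in 384-well plates to five 10-fold compound dilutions. CellTox-Green, added before seeding at a final 1:1000 dilution, gave fluorescence from DNA released by disrupted cells. Signals were scaled to vehicle and positive-control wells, cultures failing plate quality control were left out, and four-parameter logistic fits were applied. Relative IC50 and drug sensitivity score were derived from the fits, with IC50 censored at the top concentration.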
# ST8814 [2] = test: as above
# In short: as §1
# S1507-2 [3] = test: as above
# In short: as §1
# STS26T [4] = test: as above
# In short: as §1
# [5] = tested on: HSC1 (primary human Schwann cells); test: as above
# In short: as §1
# [6] = tested on: HSC2 (primary human Schwann cells); test: as above
# In short: as §1
# HS-Sch-2 [7] = test: % inhibition of CellTiter-Glo viability at highest tested concentration (72 h), relative to DMSO and benzethonium chloride controls; higher = more inhibition
# In short: (§2)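 After seeding 750–1000 cells per well of MPNST cell lines or primary human Schwann cells into 384-well plates preprinted with each compound at five concentrations in 10-fold steps, plates were kept 72 h at 37 °C, 5% CO2. Viability was read as CellTiter-Glo ATP luminescence relative to vehicle and positive-control wells, with duplicates averaged where present. The data were fitted with four-parameter logistic models. Drug sensitivity score and relative IC50, censored at the top concentration, derive from the fits, and percent inhibition refers to the top concentration.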
# HS-PSS [8] = test: as above
# In short: as §2
# S462 [9] = test: as above
# In short: as §2
# ST8814 [10] = test: as above
# In short: as §2
# YST-1 [11] = test: as above
# In short: as §2
# S1507-2 [12] = test: as above
# In short: as §2
# STS26T [13] = test: as above
# In short: as §2
# [14] = tested on: HSC1 (primary human Schwann cells); test: as above
# In short: as §2
# [15] = tested on: HSC2 (primary human Schwann cells); test: as above
# In short: as §2
# HS-Sch-2 [16] = test: drug sensitivity score (DSS, CellTiter-Glo viability, 72 h) (DSS (dimensionless)); higher = more sensitive; extreme values may be limits of the assay
# In short: as §2
# HS-PSS [17] = test: as above
# In short: as §2
# S462 [18] = test: as above
# In short: as §2
# ST8814 [19] = test: as above
# In short: as §2
# YST-1 [20] = test: as above
# In short: as §2
# S1507-2 [21] = test: as above
# In short: as §2
# STS26T [22] = test: as above
# In short: as §2
# [23] = tested on: HSC1 (primary human Schwann cells); test: as above
# In short: as §2
# [24] = tested on: HSC2 (primary human Schwann cells); test: as above
# In short: as §2
SMILES,drug sensitivity score (HS-PSS [1]),drug sensitivity score (ST8814 [2]),drug sensitivity score (S1507-2 [3]),drug sensitivity score (STS26T [4]),drug sensitivity score [5],drug sensitivity score [6],% inhibition (HS-Sch-2 [7]) [%],% inhibition (HS-PSS [8]) [%],% inhibition (S462 [9]) [%],% inhibition (ST8814 [10]) [%],% inhibition (YST-1 [11]) [%],% inhibition (S1507-2 [12]) [%],% inhibition (STS26T [13]) [%],% inhibition [14] [%],% inhibition [15] [%],drug sensitivity score (HS-Sch-2 [16]),drug sensitivity score (HS-PSS [17]),drug sensitivity score (S462 [18]),drug sensitivity score (ST8814 [19]),drug sensitivity score (YST-1 [20]),drug sensitivity score (S1507-2 [21]),drug sensitivity score (STS26T [22]),drug sensitivity score [23],drug sensitivity score [24]
CC(=O)[C@]1(O)Cc2c(O)c3c(c(O)c2[C@@H](O[C@H]2C[C@H](N)[C@H](O)[C@H](C)O2)C1)C(=O)c1ccccc1C3=O [Idarubicin] (max concentration tested 1000 nM),5.11,12.2,10.6 ± 0.28,15.8,8.63,7.65,102,92.3,99.5 ± 0.8,88,101,95.7 ± 1.7,97.8,94.9,95.5,15.7,10.1,23.5 ± 0.84,16.2,24.2,17.1 ± 2.4,20.5,18.1,17.6
COc1cc2nccc(Oc3ccc(NC(=O)Nc4cc(C)on4)c(Cl)c3)c2cc1OC [Tivozanib] (max concentration tested 10000 nM),0,1.94,0.631 ± 0.89,1.82,0.17,0,51.3,46.2,58.9 ± 1.3,36.2,58.2,42.795 ± 0.006,45.5,67.7,73.9,2.18,2,6.863 ± 0.013,0,4.22,10.5 ± 0.46,3.66,5.86,6.35
Cc1c2oc3c(C)ccc(C(=O)N[C@@H]4C(=O)N[C@H](C(C)C)C(=O)N5CCC[C@H]5C(=O)N(C)CC(=O)N(C)[C@@H](C(C)C)C(=O)O[C@@H]4C)c3nc-2c(C(=O)N[C@@H]2C(=O)N[C@H](C(C)C)C(=O)N3CCC[C@H]3C(=O)N(C)CC(=O)N(C)[C@@H](C(C)C)C(=O)O[C@@H]2C)c(N)c1=O [Dactinomycin] (max concentration tested 1000 nM),6.19,5.68,5.68 ± 3.9,25.8,12.7,14.7,102,86.7,99.1 ± 1.6,85.6,101,87 ± 3.5,99,83,89.2,32.5,25.1,32.3 ± 1.7,25.3,37.4,23.4 ± 0.57,31.9,30.8,33.5
COc1cccc2c1C(=O)c1c(O)c3c(c(O)c1C2=O)C[C@@](O)(C(C)=O)C[C@@H]3O[C@H]1C[C@H](N)[C@H](O)[C@H](C)O1 [Daunorubicin] (max concentration tested 1000 nM),0,1.13,0,3.13,2.35,3.16,102,88.2,98.64 ± 0.44,88.3,101,96.11 ± 0.088,98.5,99.9,101,10.6,9.45,14.9 ± 0.27,9.95,17.9,9.24 ± 0.51,12.9,10.4,12.7
c1ccc2c(CCNc3ccc(Nc4ccncc4)cc3)c[nH]c2c1 [Serdemetan] (max concentration tested 10000 nM),3.27,12.5,4.77 ± 0.64,3.19,0.111,0,96.2,95.3,100.5 ± 0.77,99.5,92.5,93.39 ± 0.52,78.5,65.5,70.3,4.57,6.09,10.8 ± 0.46,12.2,11.6,8.56 ± 0.85,5.45,6.36,7.15
CCC1(c2ccc(N)cc2)CCC(=O)NC1=O (centres undefined) [Aminoglutethimide] (max concentration tested 10000 nM),0,0,0,0,0,0,3.62,1.47,-7.67 ± 7.8,-3.31,-9.69,3.35 ± 1.2,2.67,8.78,-6.11,0,0,0,0,0,0,0,0,0

# From the supplement of paper PMC5579334
